Consider three compounds from ChEMBL document CHEMBL5154827, “Discovery of S-217622, a Noncovalent Oral SARS-CoV-2 3CL Protease Inhibitor Clinical Candidate for Treating COVID-19” (J Med Chem, 2022).

Data set [1] in a line: Elimination half life in Sprague-Dawley rat at 0.5 micromol/mL/kg, iv measured for 3 to 360 mins by LC-MS/MS analysis. The conditions noted are these: in vivo, time 3-360 min, dose 0.5 µmol/kg, read-out: LambdaZ (converted). The data set is classed as ADME, organism-based.
Data set [2] has as its target Human immunodeficiency virus type 1 protease (Human immunodeficiency virus 1) (UniProt Q72874). Put plainly: Inhibition of HIV-1 protease at 100 uM.
In the next data set the test system is NIH3T3. Put plainly: Phototoxicity in BALB/c mouse 3T3 fibroblast incubated for 1 hr by measuring neutral-red extraction from cells. In kind it is toxicity, cell-based. The conditions noted are these: nih3t3, 1 h.
Data set [3] in a line: Antiviral activity against HCoV-OC43 infected in MRC5 cells assessed as inhibition of viral cytopathic effect measured after 42 hrs by real-time PCR method. The conditions noted are these: Betacoronavirus 1, OC43, MRC5, 42 h. In kind it is functional, cell-based, Human coronavirus OC43. Background: Damage to the host cells serves as the signal in cytopathic effect assays.

Data set [4] addresses T1, Chymotrypsin (Homo sapiens, UniProt Q99895+P17538+P40313+Q6GPI1). Kind of data set: Inhibition of human pancreas chymotrypsin using Suc-Ala-Ala-Pro-Phe-AMC as substrate preincubated for 15 mins incubated followed by addition of substrate measured after 60 mins by measuring amount of AMC formed by spectrofluorimetric method. In kind it is protein assay.
Data set [5] has as its target T1, Chymotrypsin. Put plainly: Inhibition of human pancreas chymotrypsin at 100 uM using Suc-Ala-Ala-Pro-Phe-AMC as substrate preincubated for 15 mins incubated followed by addition of substrate measured after 60 mins by measuring amount of AMC formed by spectrofluorimetric method. In kind it is protein assay. The conditions noted are these: time 75.0 min.

Molecules are shown by their SMILES. Some results are limits rather than exact numbers.

Turning to `CNC(=O)Cn1c(=O)[nH]/c(=N\c2cc3cn(C)nc3cc2Cl)n(Cc2cc(F)c(F)c(F)c2)c1=O`, the half-life in data set [1] was 1.3 h.
The same measure, in the same setting: the same measure for `CNC(=O)Cn1c(=O)[nH]/c(=N\c2ccc(OC(F)F)cc2C)n(Cc2cc(F)c(F)c(F)c2)c1=O`: 2.1 h.
One may read the inhibition as the share of the control response that was lost under treatment. A high value points to a strong effect. Broadly, the EC50 is the concentration that produces a half-maximal response. What is called IC50 is the concentration at which inhibition is half-maximal. As for `Cn1cnc(Cn2c(=O)[nH]/c(=N\c3cc4cn(C)nc4cc3Cl)n(Cc3cc(F)c(F)cc3F)c2=O)n1`, the inhibition (in data set [2]; against Chymotrypsin [5]) was < 50% in each case. In the data set with NIH3T3, the Activity result was “Non-Toxic”. The EC50 in data set [3] was determined as 74 nM. For the same compound, on Chymotrypsin [4], the 50% inhibitory concentration (IC50) was > 100000 nM.
